Assay results: patent publication US9562083B2, “Peptides and methods for inducing cell death” (Los Angeles Biomedical Research Institute at Harbor-UCLA …, priority 2010, dated 2017)

What was measured:
Escherichia coli ML-35 = test: Modified radial diffusion assay (zones of growth inhibition); format: cell-based; conditions: pH 5.5 versus pH 7.5
Method: (§1) An agar radial diffusion assay has been used as described herein to determine antimicrobial activities of proteins against microbial pathogens in vitro. One million CFU will be mixed into 10 ml (i.e., 1×10^5 CFU/ml) of melted 1% agarose (in 10 mM NaHPO4 and cooled to 42° C.) containing minimal nutrient and adjusted to either pH 5.5 or pH 7.2. The agar is solidified in culture dishes, and sample wells are formed. Peptides at various concentrations are dissolved in 10 μl of 0.01% acetic acid buffer (pH 5.5 or 7.2), loaded into individual wells, and incubated at 37° C. for three hours. The plate is then overlayed with 1% agarose containing nutrients and incubated (37° C., for at least 24 hours). Peptides purified by RP-HPLC lacking antimicrobial activity are tested in parallel as controls. Zones of inhibition are measured to quantify antimicrobial activity. This assay will not distinguish between microbicidal and microbiostatic actions, but is highly sensitive to peptides with one or both functions.
(§2) The following assay is designed to measure the relative antimicrobial activity of peptides by determining zones of growth inhibition.
(§3) The top eleven prioritized target sequences identified in Example I (see Table 21) were synthesized by solid-phase chain extension synthesis using conventional techniques. Each synthetic peptide was purified by RP-HPLC, and authenticated for purity and correct sequence by mass spectroscopy. Stock concentrations of the synthetic peptides were prepared at 1 mg/mL in 0.01% acetic acid and adjusted to pH 7.2. Synthetic peptides were assessed for antimicrobial efficacy, spectra, and conditional optima (pH 5.5 or 7.5) using the following modified radial diffusion assay, as detailed in Yount and Yeaman, PNAS […] (2004).
(§4) Molecular grade agarose (1.0%) in 10 mM NaH2PO4H2O was prepared, pH adjusted to 7.5 or 5.5, and autoclaved for 15 minutes at 121° C., then held in a waterbath set at 48° C. until used. Mueller Hinton II overlay agarose was prepared by adding molecular grade agarose to Mueller Hinton II Broth at a final concentration of 1.0%, pH adjusted to 7.5 or 5.5, autoclaved for 10 minutes at 121° C., and then held at 48° C. until used.
(§5) Trypticase Soy Broth (TSB) (10 mL) we inoculated with an overnight growth of the test organism and incubated three to six hours until the organism reached log phase. The cells were collected by centrifugation, washed in PBS, then 0.01% acetic acid adjusted to pH 7.2. The pellet was resuspended in TSB and standardized to a 0.5 McFarland turbidity standard. A 10 μl aliquot of the inoculum is added to 10 mL of the pH-adjusted 1.0% molecular grade agarose cooled to 48° C. resulting in a final inoculum concentration of 5×10^5 CFU/mL. The suspension is poured into a 15×100 mm Petri dish and allowed to solidify.
(§6) After solidification had occurred, five 4 mm diameter wells were bored into the agarose. The central well was used as the acetic acid control while 10 μl of peptide stock solution was added to each of the other wells resulting in a final concentration of 10 μg peptide/well. The plates were incubated upright for three hours at 37° C., then overlaid with 10 mL of Mueller Hinton II agarose. After the overlay solidified, the plates were inverted and incubated overnight at 37° C.
(§7) The synthetic peptides identified in Table 22 were assayed for antimicrobial activity against known pathogenic microorganisms. These pathogenic microorganisms included five species of bacteria (Staphylococcus aureus, Escherichia coli, Salmonella typhimurium, Pseudomonas aeruginosa and Bacillus subtilis) and one species of fungi (Candida albicans) (see Table 23). Zones of growth inhibition were measured and were grouped as complete and/or partial growth zones for the assayed microorganism. Zones were considered complete clearance when there was no visible growth (i.e. completely clear or free of growth). […]

[1] = test system: Bacillus subtilis ATCC 6633; test: as above; format: cell-based; conditions: pH 5.5 versus pH 7.5
Method: as §1, §2, §3, §4, §5, §6, §7

[2] = test system: Pseudomonas aeruginosa 01; test: as above; format: cell-based; conditions: pH 5.5 versus pH 7.5
Method: as §1, §2, §3, §4, §5, §6, §7

[3] = test system: Salmonella typhimurium 14028; test: as above; format: cell-based; conditions: pH 5.5 versus pH 7.5
Method: as §1, §2, §3, §4, §5, §6, §7

[4] = test system: Pseudomonas aeruginosa strains (drug-resistant); test: Radial diffusion assay, Example III; format: cell-based; conditions: pH 5.5 and pH 7.5; all strains tested
Method: as §3, §4, §5, §6
(§8) The synthetic peptides identified in Table 22 were assayed for antimicrobial activity against known pathogenic microorganisms. These pathogenic microorganisms included five species of bacteria (Staphylococcus aureus, Escherichia coli, Salmonella typhimurium, Pseudomonas aeruginosa and Bacillus subtilis) and one species of fungi (Candida albicans) (see Table 23). Zones of growth inhibition were measured and were grouped as complete and/or partial growth zones for the assayed microorganism. Zones were considered complete clearance when there was no visible growth (i.e. completely clear or free of growth). Zones were considered partial clearance when growth was impeded or partially cleared (i.e. reduction in microbial density as compared to adjacent confluent growth). The larger the zone size, the greater the antimicrobial activity of the test peptide. The lack of a zone is an indication of no antimicrobial activity of the test peptide against the target organism under the conditions tested.
(§9) Further to the methods disclosed in Example II, utilizing the same antimicrobial assay above, the antimicrobial activity of peptides Hol-III-4 (SEQ ID NO: 268) and Ncl-VIII-6 (SEQ ID NO: 152 was determined by identifying zones of growth inhibition.
(§10) Hol-III-4 and Ncl-VIII-6 peptides were assayed for antimicrobial activity against a panel of drug-resistant Gram-negative bacterial pathogens, specifically Pseudomonas aeruginosa, and various Acinetobacter spp. strains. […] The RP-1 peptide is well known in the art to have antimicrobial activity, as illustrated in Yeaman et al., Antimicrobial Agents and Chemotherapy, 46(12):3883-3891 (2002). The 6W-RP-1 peptide is a 6-Trp variant of RP-1, which also has antimicrobial activity, as illustrated in Kilelee et al, Antimicrobial Agents and Chemotherapy 54(10):4476-4479 (2010).

[5] = test system: Acinetobacter baumannii isolates; test: Radial diffusion assay, Example III; format: cell-based; conditions: pH 5.5 vs. pH 7.5
Method: as §3, §4, §5, §6, §8, §9, §10

[6] = test system: Acinetobacter spp. strains (drug-resistant); test: Radial diffusion assay, Example III; format: cell-based; conditions: pH 5.5 and pH 7.5; all strains tested
Method: as §3, §4, §5, §6, §8, §9, §10

[7] = known in the art; cited from earlier work

Substance	effect of acidic pH on antimicrobial activity (Escherichia coli ML-35)	effect of acidic pH on antimicrobial activity [1]	effect of acidic pH on antimicrobial activity [2]	effect of acidic pH on antimicrobial activity [3]	antimicrobial activity (zone of inhibition) [4]	pH dependence of antimicrobial activity [5]	antimicrobial activity (zone of inhibition) [6]	antimicrobial activity [7]
H-ALFYFASKLYLKALYTKV-NH2 [BaxP-I-18]	did not appear to affect the activity	did not appear to affect the activity	did not appear to affect the activity	did not appear to affect the activity	–	–	–	–
H2N-IRLVSKYGKSKGIAYI-CONH2 (H-IRLVSKYGKSKGIAYI-NH2) [Ncl-VIII-6, designed from Nucleolin]	did not appear to affect the activity	did not appear to affect the activity	did not appear to affect the activity	did not appear to affect the activity	significant antimicrobial activity	pH dependent	significant antimicrobial activity	–
H2N-SIGSLIKRFAYKKAGV-CONH2 (H-SIGSLIKRFAYKKAGV-NH2) [Hol-III-4, designed from Holin protein]	did not appear to affect the activity	did not appear to affect the activity	did not appear to affect the activity	did not appear to affect the activity	significant antimicrobial activity	pH dependent	significant antimicrobial activity	–
N-AALYKKKIIKKLLES-C [PMP-2, C-terminal helix of the consensus molecule cPMP]	–	–	–	–	–	–	–	known to have antimicrobial activity
